According to patent US8383616B2, “Aryl isoxazole compounds with antitumoural activities” (Sigma-Tau Industrie Farmaceutiche Riunite SpA, priority 2008, dated 2013):
Where a name gives a salt, the structure may show the parent alone.

Assays:
[1] = system: NCI-H460 non-small cell lung carcinoma cells; assay: Cytotoxicity assay (sulphorodamine B test), NCI-H460; type: cell-based; settings: Homo sapiens, NCI-H460, 72-h exposure
Protocol: To evaluate the effect of the compounds on cells survival, the sulphorodamine B test was used. To test the effects of the compounds on cell growth, NCI-H460 non-small cell lung carcinoma cells were used. Tumour cells were grown in RPMI 1640 containing 10% fetal bovine serum (GIBCO).
(§1) Tumour cells were seeded in 96-well tissue culture plates at approximately 10% confluence and were allowed to attach and recover for at least 24 h. Varying concentrations of the drugs were then added to each well to calculate their IC50 value (the concentration which inhibits the 50% of cell survival). The plates were incubated at 37° C. for 72 h. At the end of the treatment, the plates were washed by removal of the supernatant and addition of phosphate buffered saline (PBS) 3 times. 200 μl PBS and 50 μl of cold 80% trichloroacetic acid (TCA) were added. The plates were incubated on ice for at least 1 h. TCA was removed, the plates were washed 3 times by immersion in distilled water and dried on paper and at 40° C. for 5 min. Then 200 μl of 0.4% sulphorodamine B in 1% acetic acid were added. The plates were incubated at RT for 30 min. Sulphorodamine B was removed, the plates were washed by immersion in 1% acetic acid for 3 times, then they were dried on paper and at 40° C. for 5 min. Then, 200 μl Tris 10 mM were added, the plates were kept under stirring for 20 min. The cell survival was determined as optical density by a Multiskan spectrofluorimeter at 540 nm. The amount of cells killed was calculated as the percentage decrease in sulphorodamine B binding compared with control cultures.
(§2) The IC50 values were calculated with the “ALLFIT” program.
(§3) The antiproliferative IC50 was evaluated as drug concentration required for 50% reduction of cell growth as compared with untreated controls after 72-h exposure to the drug. The IC50±SD values reported were calculated by ALLFIT program.

[2] = target: T1, Hsp90 (Homo sapiens, UniProt P07900); assay: Fluorescence polarization (FP) binding assay, displacement of GM-BODIPY; settings: GM-BODIPY tracer, 125 nM Hsp90, 4 h at 4° C.; read-out: F.P. binding assay IC50
T1 construct: purchased Stressgen SPP-776
Protocol: Fluorescence Polarization (FP)
GM-BODIPY (PerkinElmer, CUSN60342000MG) was previously dissolved in DMSO to obtain 10 mM stock solutions and kept at −20° C. until use.
The compounds were previously dissolved in DMSO to obtain stock solutions and kept at −20° C. The day of experiment, the compounds were prepared by serial dilutions in HFB. Before each use, 0.1 mg/ml Bovine Gamma globulin and 2 mM DTT were freshly added.
The plate was mixed on a shaker at 4° C. for 4 hours, and the FP values in mP (millipolarization units) were recorded. […] Curve fitting was performed using Prism GraphPad software program (GraphPad software, Inc., San Diego, Calif.).
Curve fitting was performed using Prism GraphPad software program (GraphPad software, Inc., San Diego, Calif.).

[3] = system: human epithelial carcinoma cell line A431; assay: Cytotoxicity assay (sulphorodamine B test), A431; type: cell-based; settings: Homo sapiens, A-431, 72-h exposure
Protocol: as §1, §2
The antiproliferative activity of novel Hsp90 inhibitors was evaluated on NCI-H460 non-small cell lung carcinoma cells and on a human epithelial carcinoma cell line A431.
as §3

Row | SMILES | IC50 [1] | IC50 [2] | IC50 [3]
1 | C=CC(=O)Nc1c(C(=O)NCC)noc1-c1cc(Cl)c(O)cc1O [Example 7, 4-acryloylamino-5-(5-chloro-2,4-dihydroxy-phenyl)-isoxazole-3-carboxylic acid ethylamide] | 1 to 10 µM | 0.1 to 1 µM | 0.1 to 1 µM
2 | CCNC(=O)c1noc(-c2cc(Cl)c(O)cc2O)c1NC(=O)c1ccc(Br)cc1 [Example 10, 4-(4-bromo-benzoylamino)-5-(5-chloro-2,4-dihydroxy-phenyl)-isoxazole-3-carboxylic acid ethylamide] | 1 to 10 µM | 0.1 to 1 µM | 0.1 to 1 µM
3 | CCNC(=O)c1cc(C(=O)Nc2c(C(=O)NCC)noc2-c2cc(C(C)C)c(O)cc2O)on1 [Example 22, N^5-(3-(ethylcarbamoyl)-5-(2,4-dihydroxy-5-isopropylphenyl)-isoxazol-4-yl)-N^3-ethylisoxazole-3,5-dicarboxamide] | 1 to 10 µM | < 0.1 µM | 1 to 10 µM
4 | CCNC(=O)c1noc(-c2cc(C(C)C)c(O)cc2O)c1NC(=O)C1CCC(C(C)(C)C)CC1 (stereo not drawn) [Example 24, 4-[(4-tert-butyl-cyclohexanecarbonyl)-amino]-5-(2,4-dihydroxy-5-isopropyl-phenyl)-isoxazole-3-carboxylic acid ethylamide] | 0.1 to 1 µM | < 0.1 µM | –
5 | CCNC(=O)c1noc(-c2cc(C(C)C)c(O)cc2O)c1NC(=O)C1CCC(OC)CC1 (stereo not drawn) [Example 23, 5-(2,4-dihydroxy-5-isopropyl-phenyl)-4-[(4-methoxy-cyclohexanecarbonyl)-amino]-isoxazole-3-carboxylic acid ethylamide] | < 0.1 µM | < 0.1 µM | –
6 | CCNC(=O)c1noc(-c2cc(C(C)C)c(O)cc2O)c1NC(=O)c1ccc(OC)cc1 [Example 11, 5-(2,4-dihydroxy-5-isopropyl-phenyl)-4-(4-methoxy-benzoylamino)-isoxazole-3-carboxylic acid ethylamide] | < 0.1 µM | 0.1 to 1 µM | –
7 | CCNC(=O)c1noc(-c2cc(C(C)C)c(O)cc2O)c1NC(C)=O [Example 12, 4-acetylamino-5-(2,4-dihydroxy-5-isopropyl-phenyl)-isoxazole-3-carboxylic acid ethylamide] | < 0.1 µM | < 0.1 µM | –
8 | CCNC(=O)c1noc(-c2cc(C(C)C)c(O)cc2O)c1NC(=O)[C@H]1CC[C@H](N)CC1 [Example 25, 4-[(trans-4-amino-cyclohexanecarbonyl)-amino]-5-(2,4-dihydroxy-5-isopropyl-phenyl)-isoxazole-3-carboxylic acid ethylamide hydrochloride] | 1 to 10 µM | < 0.1 µM | –
9 | CCNC(=O)c1noc(-c2cc(C(C)C)c(O)cc2O)c1NC(=O)C(C)(C)C [Example 13, 5-(2,4-dihydroxy-5-isopropyl-phenyl)-4-(2,2-dimethyl-propionylamino)-isoxazole-3-carboxylic acid ethylamide] | < 0.1 µM | < 0.1 µM | –
10 | CCNC(=O)c1noc(-c2cc(C(C)C)c(O)cc2O)c1NC(=O)CCN1CCOCC1 [Example 15, 5-(2,4-dihydroxy-5-isopropyl-phenyl)-4-(3-morpholin-4-yl-propionylamino)-isoxazole-3-carboxylic acid ethylamide] | 0.1 to 1 µM | 0.1 to 1 µM | –
11 | CCNC(=O)c1noc(-c2cc(C(C)C)c(O)cc2O)c1NC(=O)[C@H]1CC[C@H](CN)CC1 [Example 26, 4-[(trans-4-aminomethyl-cyclohexanecarbonyl)-amino]-5-(2,4-dihydroxy-5-isopropyl-phenyl)-isoxazole-3-carboxylic acid ethylamide hydrochloride] | 1 to 10 µM | < 0.1 µM | –
12 | COc1ccc(C(=O)Nc2c(C(=O)N3CC(F)(F)C3)noc2-c2cc(Cl)c(O)cc2O)cc1 [Example 34, 4-(4-methoxybenzamido)-5-(5-chloro-2,4-dihydroxyphenyl)-isoxazol-3-yl-(3,3-difluoroazetidin-lyl)-methanone] | > 10 µM | – | > 10 µM
